Measurements from ChEMBL document CHEMBL3507680, “University of Dundee, Gates Library screen for HepG2 cell viability”.

Experiment: Human HepG2 cell viability assay in 384 well format
Format: toxicity, cell-based
Set-up: dose 125 nL, time 70.5 hour; concentration not given beside the values
Settings: HepG2 cells, read-out: Inhibition

Structure (SMILES)	cytotoxicity at 70.5 h [%]
CN(C)c1nccnc1N1CC[C@@]2(O)CCNC[C@H]2C1	9.65
Cc1ccc(-c2nc(CC3CCN(C)CC3)no2)cc1N1CCNC1=O	-7.33
CC(C)Cc1cc(CNC(=O)c2ccccc2C2CCNC2)no1 (stereo not given)	-17.5
O=C(O)C1(Oc2ccc(Cl)cc2)CCN(C2CCOCC2)CC1	-17.1
Cc1cc(CC(C)NC(=O)c2cccc(CC3CCNCC3)c2)[nH]n1 (stereo not given)	-2.93
CC(C)=CCN1C(=O)[C@H]2CC[C@@H]1CN(C(=O)CCc1nc(Cl)n[nH]1)C2	-14.8
COc1ccccc1N1CCN(C(=O)CCn2ccc(C)n2)CC1(C)C	-5.62
Cc1ccc(C(=O)N2CCC3(CCC(=O)N(CCN(C)C)C3)CC2)nc1	-3.11
CCOc1ccc(C(=O)CCC(=O)NCc2csc(N)n2)cc1C	-11.5
CC/C=C(\C)CN1CCC(CNC(=O)c2c[nH]c(=O)c(Cl)c2)C1 (stereo not given)	12.8
CN(Cc1ccccn1)C(C(=O)O)c1ccc2c(c1)OCO2 (stereo not given)	-2.22
CN(Cc1cn(C2CCNCC2)nn1)CC1CCCO1 (stereo not given)	-9.31
CC(C)c1nccn1CCCNC(=O)c1ccc(-c2ccncc2)nc1	17.9
CCCN(CCc1ccccc1)C(=O)c1ccccc1NCC(=O)O	-7.74
CCc1cc(CN(C)C(=O)CN2CC3(CCNCC3)OC2=O)on1	-2.42
COC[C@]1(O)CCN(C(=O)c2cccc(CN(C)C)c2)CC1(C)C	-5.34
O[C@H]1[C@H](NCCc2ccccn2)c2ccccc2C12CCNCC2	20.6
CC(=O)N1CCc2[nH]cnc2C12CCN(C(=O)CCn1cccn1)CC2	1.39
COc1ccc(C(=O)N2CCOCC(CO)C2)cc1N1CCOCC1 (stereo not given)	-3.09
CC(C)c1nccc(CN2CCC(O)(CN3CCCCC3)C2)n1 (stereo not given)	-4.46
O=C(CN1CCN(c2ncccn2)[C@@H]2CS(=O)(=O)C[C@@H]21)N1CCCCC1	-1.85
Cc1nc(CCN2CCC(Oc3ccccc3F)CC2)c(C)s1	8.34
CCc1cnc(NCCSc2cnn[nH]2)nc1	28.2

Structure (SMILES)	cytotoxicity at 70.5 h [%]
Cc1cc(C(=O)N2C[C@@H](CN3CCCCC3)[C@@H](CO)C2)ccc1O	-5.69
CC(C(=O)O)N1CCc2onc(-c3ccc(F)c(F)c3)c2C1 (stereo not given)	-6.87
CNC(=O)c1cn2cc(-c3ccccc3Cl)n(CC=C(C)C)c(=O)c2n1	35.1
CCC1CN(C(=O)c2cccnc2O)CCC(=O)N1Cc1ccccc1 (stereo not given)	-3.15
COc1ccccc1-c1noc(CCC(=O)NC(C)Cn2cccn2)n1 (stereo not given)	-3.38
CCNc1ncc(C(=O)N(C)C(C)c2ccc3c(c2)OCCO3)cn1 (stereo not given)	-2.94
CNC(=O)c1noc(CN2CC[C@](C)(O)[C@H](C)C2)n1	-8.07
Cc1cccc(=O)n1CCC(=O)N1CCC2(CC1)OCCCC2O (stereo not given)	-3.41
CCc1csc(CNC2CCN(Cc3ccccc3)C2)n1 (stereo not given)	-8.44
CCNC(=O)[C@@H]1C[C@@H](N)CN1C(=O)C1(c2ccc(OC)cc2)CCCC1	-9.96
CCN1CCN(C(C)(C)CNc2nc(C)cc(C3CCC3)n2)CC1	-5.33
CCCc1ncc(CN(CCOC)Cc2cccs2)cn1	-1.12
COc1cccn(CC(=O)N2CCCC3(CCCCC3)C2)c1=O	-4.6
O=C(O)c1nn(CC2CC2)c2c1CN(S(=O)(=O)c1cccnc1)CC2	-11
Cc1cc(C)c2c(NC(C)c3nncn3C3CCCC3)ncnc2n1 (stereo not given)	-4.92
CN(C)[C@H]1CN(C(=O)CCc2cccc(F)c2)C[C@@H]1C1CC1	-5.67
Cc1n[nH]c(CN2CCN(c3ncnc4scc(C)c34)CC2)c1Cl	-8.15
CCn1cc(-c2n[nH]c(=O)n2-c2ccc(OC)c(OC)c2)c(C)n1	-4.02
Cn1c(CN2CCCCC2)nnc1C1CCN(c2nccc(N)n2)CC1	-7.78
COc1cc(N(C)Cc2cc(C(C)(C)C)n[nH]2)ncn1	17.2
O=C(CC1=CSC2=NCCCN12)N1CCCCC1c1cccc(F)c1 (stereo not given)	20.1
CN1C(=O)CC(C(=O)O)C12CCN(Cc1ccc(Cl)c(Cl)c1)CC2 (stereo not given)	-7.82
COc1ccc(OC2CCN(C(=O)C(C)Cn3cccn3)CC2)cc1 (stereo not given)	-2.17

Structure (SMILES)	cytotoxicity at 70.5 h [%]
CN1CCc2nc(N(C)C)nc(N3CCC(O)CC3)c2C1	-9.46
COc1cccn(CC(=O)N2CCCC3(CCCO3)CC2)c1=O (stereo not given)	-7.92
Cc1ccccc1S(=O)(=O)N1CCc2c(ncnc2N(C)C)C1	0.46
Cc1cccn2c(CNC(C)CO)cnc12 (stereo not given)	40.8
C=C(C)COc1ccccc1C(=O)N(C)C(C)c1c(C)n[nH]c1C (stereo not given)	-2.31
Cc1cc(C)nc(NC2CCCN(CCCc3ccccc3)C2)n1 (stereo not given)	54.5
CCN(CCn1cccn1)Cc1nc(-c2ccc(F)cc2)oc1C	-6.91
O=C(O)C(c1ccc2c(c1)OCCO2)N1CCC(N2CCSCC2)CC1 (stereo not given)	-1.86
CC(C)n1cnnc1CN(C)Cc1cnc(-c2cccs2)nc1	0.122
Cc1nn(C)c(C)c1CN(CCO)C(=O)C1COc2ccccc2C1 (stereo not given)	30
CC(C)CN1CC2(CCN(C(=O)c3nc4ncccn4n3)CC2)CC1=O	-17.1
Cc1cc(C)n(CCN2CCOC(CNc3cccnn3)C2)n1 (stereo not given)	-4.33
CC(C)OCCCNC(=O)CS(=O)(=O)Cc1cccc(Cl)c1	-10.6
Cc1ccc(C(=O)NCc2cccnc2N(C)C)s1	-10.9
O=C(CC1CCCCC1)NC1CCCCNC1=O (stereo not given)	-9.32
O=C(CS(=O)(=O)Cc1ccc(F)cc1)NC1CCCCNC1=O (stereo not given)	-6.01
CC(NC(=O)c1ccoc1)c1ccc2c(c1)CCC(=O)N2 (stereo not given)	-0.0886
Cc1ccsc1CNC(=O)NC(C)c1ccc2c(c1)CCC(=O)N2 (stereo not given)	-13.4
CCCc1nnc(NC(=O)NC(C)Cn2cccn2)s1 (stereo not given)	-0.592
CCn1c(C(=O)N2CCCN(CC(N)=O)CC2)cc2ccccc21	-3.29
COC(=O)C(NC(=O)C1CCC1)c1cc(F)ccc1F (stereo not given)	-7.83
NC(=O)C1CCN(C(=O)c2cccn2Cc2cccs2)C1 (stereo not given)	-0.693
c1ccc(-c2nnc(CN3CCCC3Cn3cncn3)o2)cc1 (stereo not given)	-0.362

Structure (SMILES)	cytotoxicity at 70.5 h [%]
COC(=O)C(NC(=O)CCc1ccco1)c1cc(F)ccc1F (stereo not given)	-7.98
CCOCC(O)CN1CCN(C(=O)c2cc(Cl)ccc2F)CC1 (stereo not given)	2.85
Fc1ccc(-c2nnc(CN3CCCC(Cn4cncn4)C3)o2)cc1 (stereo not given)	-5.49
CCOCC(O)CN1CCN(C(=O)c2cccc(OC)c2)CC1 (stereo not given)	-2.53
CCOCC(O)CN1CCN(C(=O)c2cc(F)cc(F)c2)CC1 (stereo not given)	-2.71
c1ccc(OCCCN2CCOC(CNc3cccnn3)C2)cc1 (stereo not given)	-6.97
COc1ccc(C)cc1CC(=O)NS(=O)(=O)c1ccc(C(N)=O)cc1	-6.98
CC(=O)N1CCCC1C(=O)NCCOc1cccc(F)c1 (stereo not given)	-12.8
CC(=O)N1CCCC1C(=O)NCCOc1ccc(C(C)C)cc1 (stereo not given)	-1.19
CN(Cc1ccco1)C(=O)C1CSCN1C(=O)C1CCC1 (stereo not given)	-8.79
Cc1nc(C)c(CN2CCC(N(C)Cc3nnc(C4CC4)o3)C2)s1 (stereo not given)	-12.3
CCN(CC)Cc1ccc(C(=O)N2CCCC2c2cnn(C)c2)o1 (stereo not given)	21.2
Cc1ccc(CN(C)C(=O)CN2CCCC(Cn3cncn3)C2)o1 (stereo not given)	-5.76
CC(=O)N1CCCC(C(=O)NCCOc2cc(C)cc(C)c2)C1 (stereo not given)	18
CC(=O)NCc1ccc(C(=O)N2CCCC2c2c(C)nn(C)c2C)o1 (stereo not given)	-9.03
Cc1nn(C)c(C)c1C1CCCN1C(=O)CCc1ccco1 (stereo not given)	-1.9
CN(Cc1cccs1)C(=O)CN1CCCC(Cn2cncn2)C1 (stereo not given)	-5.28
Cc1ccc(CNC(=O)Nc2nncs2)cn1	-6.07
Cc1ccc(CNC(=O)Nc2nccs2)cn1	-4.14
Cc1ccc(-c2nc(CN3CCN(CCO)CC3)co2)cc1	-9.54
CCOCCCn1c(NC(=O)c2cnc(C)s2)nc2ccccc21	4.48
CN(Cc1ccncc1)C(=O)[C@H]1CSCN1C(=O)OC(C)(C)C	-2.79
CN(Cc1ccsc1)C(=O)CN1CCCC(Cn2cncn2)C1 (stereo not given)	-5.89

Structure (SMILES)	cytotoxicity at 70.5 h [%]
CC(=O)NCc1ccc(C(=O)N2CCCC2c2cnn(C)c2)s1 (stereo not given)	-0.6
Cc1csc(C2CCCCN2C(=O)c2cc(C)n(C)n2)n1 (stereo not given)	25.5
Cc1csc(C2CCCCN2C(=O)c2cc(C(C)C)[nH]n2)n1 (stereo not given)	1.99
Cc1nc(CN(C)C2CCN(Cc3ccc(Cl)s3)C2)no1 (stereo not given)	-4.8
N#Cc1ccsc1NC(=O)CCN1CCn2c(nnc2C2CC2)C1	-7.52
N#Cc1ccsc1NC(=O)CN1CCn2c(nnc2C2CC2)C1	-6.74
Cc1csc(C2CCCCN2C(=O)c2c[nH]c(C)n2)n1 (stereo not given)	0.914
CCc1nnc(CN(C)C2CCCN(Cc3noc(C4CC4)n3)C2)o1 (stereo not given)	12.1
Cc1cc(CN2CCC(N(C)Cc3noc(C4CC4)n3)C2)no1 (stereo not given)	13
CC(C(=O)NCCN1CCN(C)CC1)n1cncn1 (stereo not given)	-7.19
CC1CCN(CCNC(=O)C(C)n2cncn2)CC1 (stereo not given)	-2.14
Cc1cc(C)n(CC2CCCN2CC(=O)Nc2cc(C(C)C)no2)n1 (stereo not given)	14.2
COc1ccccc1CNC(=O)CNCCn1cc(C)cn1	-13.5
c1ccc(Cc2noc(CN3CCc4cncnc4C3)n2)cc1	-9.62
CCC(O)CN1CCN(C(=O)CCc2c(C)noc2Cl)CC1 (stereo not given)	-12.7
Cc1cnn(C2CN(CC(=O)NCC(C)C)C2)c1	-13.6
CS(=O)(=O)c1ccc(C(=O)NCCNc2ncccn2)cc1	-12.6
Cc1csc(CNC(=O)N2CCN(Cc3ccco3)CC2)n1	-5.98
Cc1csc(CNC(=O)N2CCN(Cc3cc(C)on3)CC2)n1	-3.55
COc1cc(CCC(=O)NC(C)C)ccc1OCC(F)(F)F	-18.5
O=C(Cc1ccc2c(c1)CCC2)NCCNc1cnccn1	-16
Cc1cc(CN2CCN(C(=O)NCc3c(C)noc3C)CC2)on1	-13.9
CN(Cc1cccc(OC(F)F)c1)Cc1nc2c(cnn2C)c(=O)[nH]1	2.1
